# According to US20200113902A1, “COMPOSITIONS AND METHODS FOR TREATING CANCERS WITH COVALENT INHIBITORS OF CYCLIN-DEPENDENT KINASE 7 (CDK7)” (Syros Pharmaceuticals, Inc., priority 2017, published 2020):
# Legend:
# HCC70 cells = assay: Growth rate (GR) inhibition, Cell Titer Glo 2.0, HCC70; format: cell-based, human; details: concentrations greater than 100 nM, 72 hours
# Procedure: To determine the effect of Compound 1 on the growth of TNBC cancer cells, four different human TNBC cell lines were used—HCC70, MDA-MB-468, MDA-MB-453 and CAL120. Cells from each cell line were plated separately at 50,000 cells/mL (100 uL per well) in a black-walled 96 well plate and allowed to adhere overnight. In parallel, cells were plated in a separate day 0 plate to measure the number of cells present upon compound addition. The next day, Compound 1 was added to the wells with an HP 300e compound dispenser in a 10-point serial dilution and cells incubated for 72 hours. On the same day Cell Titer Glo 2.0 reagent was added to the day 0 plate, and the luminescence measured with an Envision plate reader per manufacture protocol. After 72 hours Cell Titer Glo 2.0 reagent was added to the plates and the luminescence measured. GR curves were calculated as follows: […]
# wherein x(c) is the Compound 1 treatment luminescence); x0 is the average Day 0 luminescence); and xctrl is the average DMSO treatment luminescence, and graphed using Graph Pad Prism. A GR value of 1 indicates no growth inhibition; GR values between 0 and 1 indicate partial growth inhibition; a GR value of 0 indicates cytostasis (no change from baseline); GR values less than 0 indicate cytotoxicity (cell number less than baseline); a GR value of −1 indicates complete cell loss.
# [1] = test system: ovarian carcinoma PDX models (OV5387, OV14702, OV14972, OV15398, OV15576, OV15696, OV15612, OV15631); assay: Ovarian carcinoma patient-derived xenografts (eight models), tumor volume; format: in vivo, mouse; details: 40 mg/kg or 30 mg/kg i.v. BIW; four did not respond
# Procedure: Patient-derived xenograft (PDX) models from ovarian carcinoma patients (OV5387, OV14702, OV14972, OV15398, OV15576, OV15696, OV15612, OV15631) were established in NOD-SCID mice at Crown Bioscience (San Diego, USA). Cryo vials containing tumor cells were thawed and prepared for injection into mice. Cells were washed in PBS, counted, and resuspended in cold PBS at a concentration of 50,000-100,000 viable cells/100 ul. Cell suspensions were mixed with an equal volume of Cultrex ECM and kept on ice during transport to the vivarium. Cells were prepared for injections by withdrawing ECM-Cell mixture into a chilled slip-tip syringe fitted with a 26G 7/8 (0.5 mm×22 mm) needle. The filled syringes were kept on ice to avoid the solidification of ECM. Each mouse was inoculated subcutaneously in the right flank with 200 uL of the cell suspension. Tumor sizes were measured in two dimensions using a caliper, and the volumes were expressed in mm3 using the formula: V=0.5 a×b^2 where a and b are the longest and shortest diameters of the tumor, respectively. Compound 1 treatment was started when the average tumor size reached 150-200 mm^3.
# Compound 1 was formulated in w/v 20% Captisol (pH 4-6) and administered by i.v. twice weekly (BIW) at a final dose of 40 mg/kg or 30 mg/kg in a 10 ml/kg volume. Tumor volumes were measured twice weekly over the course of the study. […]
# [2] = test system: gene expression in HCC70 cells; assay: Gene expression profiling via RNA-seq (DESeq2, linear model), HCC70; format: cell-based; details: four hours, JQ1 125 nM, Compound 1 25 nM
# Procedure: In addition, we compared the ability of JQ1 alone, Compound 1 alone, and a combination of JQ1 and Compound 1 to modify expression of various genes in two breast cancer cell lines. Two triple-negative breast cancer cell lines (HCC70 and MDA-MB468) were tested. The cell lines were treated with JQ1, Compound 1, the JQ1/Compound 1 combination, or DMSO for four hours, after which gene expression profiling via RNA-seq was performed. JQ1 was administered to the cells at a 125 nM final concentration in both single agent and combination experiments. Compound 1 was administered to the cells at a 25 nM final concentration in both single agent and combination experiments. Each experiment was performed in triplicate. One replicate of MDA-MB-468 treated with single-agent JQ1 was excluded from further analysis due to quality.
# We employed DESeq2 (Love et al., Genome Biology, 15(12):550, 2014) to identify changes in gene expression due to the JQ1, Compound 1, and JQ1-Compound 1 combination treatment compared to the control DMSO condition based on the RNA-seq data. Genes resulting in a p-value below 0.01 and an absolute logFoldChange above 0.5 were considered to be differentially expressed. […] The same is true for 1459 of 2414 genes in MDA-MB468.
# To identify the genes whose expression is impacted synergistically by the drug combination, we modeled the effect of each drug treatment on expression using a linear model. The expression of each gene after the combination treatment can be thought of as the combined impact of Compound 1, JQ1, and any synergistic interaction between the drug treatments on baseline gene expression. A linear model used to describe this relationship could therefore be represented as:
# Gene Expression after combination treatment=Baseline Expression+Compound 1 effect+JQ1 effect+Combination effect (Synergistic Impact)
# By fitting the expression data for each gene using this model, we were able to evaluate the effect of each treatment, and identify cases where a synergistic interaction between Compound 1 and JQ1 impacts final gene expression. After fitting the linear model to each gene, the weight and p-value of each term can be evaluated. The combination term's weight signifies the mean change resulting from a synergetic impact on expression, with a negative weight indicating synergistic downregulation. Its associated p-value represents the probability that the combination term is not relevant to final gene expression. Using this approach, we identified 1806 genes in HCC70 and 2205 genes in MDA-MB468 whose expression change in the combination treatment was synergistic and whose associated p-value was less than a threshold cutoff of 0.01. The expression of these synergistic genes could not be explained by an additive effect of Compound 1 and JQ1 alone.
compound,measurement,setting,value
"CN(C)C/C=C/C(=O)Nc1ccc(C(=O)N[C@@]2(C)CCC[C@@H](Nc3ncc(Cl)c(-c4c[nH]c5ccccc45)n3)C2)nc1 [Compound 1, N-((1S,3R)-3-(5-chloro-4-(1H-indol-3-yl)pyrimidin-2-ylamino)-1-methylcyclohexyl)-5-((E)-4-(dimethylamino)but-2-enamido)picolinamide]",Inhibition of growth (GR curve),HCC70 cells,almost complete inhibition of growth
same,Response to treatment across eight ovarian PDX models (tumor growth vs historical untreated),[1],four of the xenografts responded to treatment
same,Average Expression (TPM) GATA3,[2]; DMSO 32.685,22.404 TPM
same,Average Expression (TPM) FOXC1,[2]; DMSO 40.481,25.768 TPM
same,Average Expression (TPM) TGIF1,[2]; DMSO 62.523,68.293 TPM
